Test results taken from patent US8853190B2, “Steroids having increased water solubility and resistance against metabolism, and methods for their production” (Umecrine AB, priority 2006, dated 2014).

Assay: HPLC retention times (reverse phase) as a measure of hydrophilicity
Assay type: physicochemical
Conditions: reverse phase C18 3.5 μm 4.6×75 mm; 45° C.; flow 1.0 mL/min; isocratic 40:60 v/v H2O:MeOH; shorter retention times correspond to higher hydrophilicity
Procedure: HPLC Retention Times [min] for Compounds According to the Invention
HPLC Conditions: Waters's SYMMETRY® HPLC column system (C18 3.5 μm 4.6×75 mm); T: 45° C.; flow 1.0 mL/min; isocratic eluent conditions 40:60 v/v/H2O:MeOH. Injection volume: 100 μL.
Solvents used for eluent are of HPLC grade, water filtered through a Millipore apparatus; all solvents were filtered through a 0.45 μm Millipore filter and degassed by N2 stream prior use.
Since the analyses are carried in reverse phase, shorter retention times correspond to higher hydrophilicity.

| Structure (SMILES) | retention time |
| --- | --- |
| CC(=O)[C@H]1CC[C@H]2[C@@H]3CC[C@H]4C[C@@H](O)CC[C@]4(C)[C@H]3CC[C@]12C [3β-5α-pregnan-20-one, reference compound] | 30.0 min |
| CC(=O)[C@H]1CC[C@H]2[C@@H]3CC[C@@H]4C[C@@H](O)CC[C@]4(C)[C@H]3CC[C@]12C [3β-5β-pregnan-20-one, reference compound] | 24.4 min |
| C#C[C@@]1(O)CC[C@@]2(C)[C@@H](CC[C@@H]3[C@@H]2CC[C@]2(C)C(=O)CC[C@@H]32)C1 [UC 2021, 3β-ethynyl, 3α-hydroxyl, androstan-17-one] | 7.8 min |
| C#C[C@]1(O)C=C2CCC3C(CC[C@@]4(C)C3CC[C@@H]4C(C)=O)[C@@]2(C)CC1 (stereo partly drawn) [UC 2024, 3β-ethynyl, 3α-hydroxyl, Δ4-pregnen-20-one] | 14.0 min |
| C#C[C@@]1(O)CC[C@@]2(C)C(CC[C@@H]3[C@@H]2CC[C@]2(C)/C(=N\O)CC[C@@H]32)C1 (stereo partly drawn) [UC 2025, 3β-ethynyl, 3α-hydroxyl, androstan-17-one oxime] | 13.9 min |
| C#C[C@@]1(O)CC[C@@]2(C)[C@@H](CC[C@@H]3[C@@H]2CC[C@]2(C)[C@@H](/C(C)=N/O)CC[C@@H]32)C1 [UC 2026, 3β-ethynyl, 3α-hydroxyl, 5α-pregnan-20-one oxime] | 16.9 min |
